Species: Ovis aries
Test: Ratio of omeprazole IC50 to compound IC50 for sheep gastric H(+)/K(+) ATPase
Format: tissue-based
Settings: Stomach; call rule not given here

Ratio IC50	SMILES
15	COc1ccc(NC(=S)NC(CCC(=O)N2CCN(c3nsc4ccccc34)CC2)C(=O)N2CCN(c3nsc4ccccc34)CC2)cc1 (configuration not stated)

System: not listed separately
Test: Inhibition of sheep gastric H(+)/K(+)-ATPase-mediated inorganic phosphate liberation after 15 mins by Fiske Subbarow method in presence of ATP
Format: tissue-based, Ovis aries, Stomach
Settings: not given

IC50	SMILES
Not Active	CC(C)(C)OC(=O)NC(CCC(=O)OCc1ccccc1)C(=O)O (configuration not stated)
Not Active	CC(C)(C)OC(=O)NC(CCC(=O)N1CCN(c2nsc3ccccc23)CC1)C(=O)N1CCN(c2nsc3ccccc23)CC1 (configuration not stated)
Not Active	CC(C)(C)OC(=O)NC(CCC(=O)O)C(=O)N1CCN(c2nsc3ccccc23)CC1 (configuration not stated)
Not Active	CC(C)(C)OC(=O)NC(CCC(=O)OCc1ccccc1)C(=O)N1CCN(c2nsc3ccccc23)CC1 (configuration not stated)

Same assay, conditions: read-out: IC50

IC50	SMILES
74 µM	O=C(CCC(NC(=S)Nc1ccccc1F)C(=O)N1CCN(c2nsc3ccccc23)CC1)N1CCN(c2nsc3ccccc23)CC1 (configuration not stated)
48 µM	O=C(CCC(NC(=S)Nc1cccc(Br)c1)C(=O)N1CCN(c2nsc3ccccc23)CC1)N1CCN(c2nsc3ccccc23)CC1 (configuration not stated)
54 µM	O=C(CCC(NC(=S)Nc1ccc(Cl)cc1)C(=O)N1CCN(c2nsc3ccccc23)CC1)N1CCN(c2nsc3ccccc23)CC1 (configuration not stated)
44 µM	O=C(CCC(NC(=S)Nc1ccccc1Br)C(=O)N1CCN(c2nsc3ccccc23)CC1)N1CCN(c2nsc3ccccc23)CC1 (configuration not stated)
52 µM	O=C(Nc1ccc(Cl)cc1)NC(CCC(=O)N1CCN(c2nsc3ccccc23)CC1)C(=O)N1CCN(c2nsc3ccccc23)CC1 (configuration not stated)
10 µM	COc1cccc(NC(=S)NC(CCC(=O)N2CCN(c3nsc4ccccc34)CC2)C(=O)N2CCN(c3nsc4ccccc34)CC2)c1 (configuration not stated)
11 µM	COc1cccc(NC(=O)NC(CCC(=O)N2CCN(c3nsc4ccccc34)CC2)C(=O)N2CCN(c3nsc4ccccc34)CC2)c1 (configuration not stated)
17 µM	COc1ccccc1NC(=S)NC(CCC(=O)N1CCN(c2nsc3ccccc23)CC1)C(=O)N1CCN(c2nsc3ccccc23)CC1 (configuration not stated)
19 µM	COc1ccccc1NC(=O)NC(CCC(=O)N1CCN(c2nsc3ccccc23)CC1)C(=O)N1CCN(c2nsc3ccccc23)CC1 (configuration not stated)
78 µM	O=C(Nc1cccc(F)c1)NC(CCC(=O)N1CCN(c2nsc3ccccc23)CC1)C(=O)N1CCN(c2nsc3ccccc23)CC1 (configuration not stated)
56 µM	O=C(Nc1cccc(Cl)c1)NC(CCC(=O)N1CCN(c2nsc3ccccc23)CC1)C(=O)N1CCN(c2nsc3ccccc23)CC1 (configuration not stated)
5.4 µM	COc1ccc(NC(=S)NC(CCC(=O)N2CCN(c3nsc4ccccc34)CC2)C(=O)N2CCN(c3nsc4ccccc34)CC2)cc1 (configuration not stated)
72 µM	O=C(Nc1ccc(F)cc1)NC(CCC(=O)N1CCN(c2nsc3ccccc23)CC1)C(=O)N1CCN(c2nsc3ccccc23)CC1 (configuration not stated)
80 µM	O=C(Nc1ccccc1F)NC(CCC(=O)N1CCN(c2nsc3ccccc23)CC1)C(=O)N1CCN(c2nsc3ccccc23)CC1 (configuration not stated)
84 µM	COc1ccc2[nH]c([S+]([O-])Cc3ncc(C)c(OC)c3C)nc2c1 (configuration not stated) [OMEPRAZOLE]
60 µM	O=C(CCC(NC(=S)Nc1cccc(Cl)c1)C(=O)N1CCN(c2nsc3ccccc23)CC1)N1CCN(c2nsc3ccccc23)CC1 (configuration not stated)
46 µM	O=C(Nc1ccc(Br)cc1)NC(CCC(=O)N1CCN(c2nsc3ccccc23)CC1)C(=O)N1CCN(c2nsc3ccccc23)CC1 (configuration not stated)
94 µM	O=C(Nc1ccccc1)NC(CCC(=O)N1CCN(c2nsc3ccccc23)CC1)C(=O)N1CCN(c2nsc3ccccc23)CC1 (configuration not stated)
70 µM	O=C(CCC(NC(=S)Nc1ccc(F)cc1)C(=O)N1CCN(c2nsc3ccccc23)CC1)N1CCN(c2nsc3ccccc23)CC1 (configuration not stated)
90 µM	O=C(CCC(NC(=S)Nc1ccccc1)C(=O)N1CCN(c2nsc3ccccc23)CC1)N1CCN(c2nsc3ccccc23)CC1 (configuration not stated)
6.2 µM	COc1ccc(NC(=O)NC(CCC(=O)N2CCN(c3nsc4ccccc34)CC2)C(=O)N2CCN(c3nsc4ccccc34)CC2)cc1 (configuration not stated)
50 µM	O=C(Nc1cccc(Br)c1)NC(CCC(=O)N1CCN(c2nsc3ccccc23)CC1)C(=O)N1CCN(c2nsc3ccccc23)CC1 (configuration not stated)

Source: ChEMBL document CHEMBL2401633, “tert-Butyl 1,5-bis(4-(benzo[d]isothiazol-3-yl)piperazin-1-yl)-1,5-dioxopentan-2-ylcarbamate urea/thiourea derivatives as potent H+/K(+)-ATPase inhibitors” (Bioorg Med Chem Lett, 2013)
